Results taken from ChEMBL document CHEMBL2034824, “Pyridyl-2,5-diketopiperazines as potent, selective, and orally bioavailable oxytocin antagonists: synthesis, pharmacokinetics, and in vivo potency” (J Med Chem, 2012).
≈ marks a conversion by molar mass, not a printed value. Each block holds one compound with its values, some of them ahead of it.

What was measured:
Liver = assay: Intrinsic clearance in dog liver microsomes; format: ADME, Canis lupus familiaris, Microsome
Oxytocin receptor [1] = biological target: T1, Oxytocin receptor (Homo sapiens, UniProt P30559); assay: Displacement of [3H]oxytocin from human oxytocin receptor
T1 sequence (P30559 whole entry): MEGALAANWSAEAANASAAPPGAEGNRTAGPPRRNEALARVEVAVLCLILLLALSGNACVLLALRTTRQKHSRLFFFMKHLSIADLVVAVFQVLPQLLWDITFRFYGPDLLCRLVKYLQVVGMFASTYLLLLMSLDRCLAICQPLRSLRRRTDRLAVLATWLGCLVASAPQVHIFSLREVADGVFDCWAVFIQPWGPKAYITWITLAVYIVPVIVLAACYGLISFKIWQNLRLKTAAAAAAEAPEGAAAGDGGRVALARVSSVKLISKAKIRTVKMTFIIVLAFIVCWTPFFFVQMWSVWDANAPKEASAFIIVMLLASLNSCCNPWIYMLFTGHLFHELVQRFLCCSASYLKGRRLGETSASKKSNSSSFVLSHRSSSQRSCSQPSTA

[2] = Clearance in rat at 5 mg/kg; format: ADME, organism-based; parameters: dose 5 mg/kg; details: in vivo
Liver microsomes [3] = assay: Intrinsic clearance in rat liver microsomes; format: ADME, Microsome
[4] = AUC in rat at 5 mg/kg, po; format: ADME, organism-based; parameters: dose 5 mg/kg, route oral; details: plasma
serum albumin [5] = biological target: serum albumin (Rattus norvegicus, UniProt P02770); assay: Binding affinity to rat serum albumin; format: ADME; details: read-out: PB (converted)
Sequence of serum albumin (Rattus norvegicus, UniProt P02770) (P02770 whole entry): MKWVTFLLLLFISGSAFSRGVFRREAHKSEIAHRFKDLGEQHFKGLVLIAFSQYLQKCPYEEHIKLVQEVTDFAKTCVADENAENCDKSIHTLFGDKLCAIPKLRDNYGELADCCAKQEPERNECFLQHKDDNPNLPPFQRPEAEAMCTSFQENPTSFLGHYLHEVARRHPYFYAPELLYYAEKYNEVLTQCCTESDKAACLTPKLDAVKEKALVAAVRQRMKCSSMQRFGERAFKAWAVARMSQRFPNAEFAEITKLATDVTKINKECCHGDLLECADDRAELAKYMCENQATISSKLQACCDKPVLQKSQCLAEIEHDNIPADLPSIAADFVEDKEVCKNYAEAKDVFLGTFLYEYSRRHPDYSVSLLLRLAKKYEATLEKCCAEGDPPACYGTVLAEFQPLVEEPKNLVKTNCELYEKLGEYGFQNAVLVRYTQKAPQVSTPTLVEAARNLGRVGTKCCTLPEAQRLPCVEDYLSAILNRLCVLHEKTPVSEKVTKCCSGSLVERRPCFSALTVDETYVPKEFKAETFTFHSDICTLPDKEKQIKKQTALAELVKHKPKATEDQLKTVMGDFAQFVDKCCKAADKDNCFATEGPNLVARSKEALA

[6] = Oral bioavailability in rat at 5 mg/kg; format: ADME, organism-based; details: in vivo
serum albumin [7] = biological target: serum albumin (Homo sapiens, UniProt P02768); assay: Binding affinity to human serum albumin; format: ADME; details: read-out: PB (converted)
Sequence of serum albumin (Homo sapiens, UniProt P02768) (P02768 whole entry): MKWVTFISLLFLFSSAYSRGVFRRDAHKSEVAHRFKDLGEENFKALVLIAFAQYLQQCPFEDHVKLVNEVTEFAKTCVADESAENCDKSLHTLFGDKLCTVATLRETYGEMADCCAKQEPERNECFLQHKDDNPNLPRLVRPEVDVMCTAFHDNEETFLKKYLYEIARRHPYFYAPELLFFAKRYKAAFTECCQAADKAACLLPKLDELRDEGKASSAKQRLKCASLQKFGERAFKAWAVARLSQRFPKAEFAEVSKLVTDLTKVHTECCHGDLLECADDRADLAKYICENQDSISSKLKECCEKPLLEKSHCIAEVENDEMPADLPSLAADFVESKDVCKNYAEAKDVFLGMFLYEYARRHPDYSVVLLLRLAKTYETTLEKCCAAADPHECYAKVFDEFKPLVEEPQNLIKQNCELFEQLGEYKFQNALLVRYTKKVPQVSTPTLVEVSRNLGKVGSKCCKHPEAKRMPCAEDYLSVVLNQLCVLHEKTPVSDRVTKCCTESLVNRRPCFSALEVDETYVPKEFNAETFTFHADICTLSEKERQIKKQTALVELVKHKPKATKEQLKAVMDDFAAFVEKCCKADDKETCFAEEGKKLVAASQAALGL

[8] = Clearance in dog at 0.6 mg/kg; format: ADME, organism-based, Canis lupus familiaris; parameters: dose 0.6 mg/kg; details: in vivo
Liver microsomes [9] = assay: Intrinsic clearance in human liver microsomes; format: ADME, Microsome
[10] = Intrinsic clearance in cynomolgus monkey liver microsomes; format: ADME, Macaca fascicularis, Microsome
[11] = Aqueous solubility of the compound by HPLC analysis; format: physicochemical
[12] = AUC in dog at 0.6 mg/kg, po; format: ADME, organism-based, Canis lupus familiaris; parameters: dose 0.6 mg/kg, route oral; details: plasma
[13] = Oral bioavailability in dog at 0.6 mg/kg; format: ADME, organism-based, Canis lupus familiaris; details: in vivo
[14] = Lipophilicity, log D of the compound by HPLC analysis; format: physicochemical
Oxytocin receptor [15] = biological target: T1, Oxytocin receptor; assay: Antagonist activity at human oxytocin receptor assessed as inhibition of oxytocin binding by FLIPR analysis
[16] = AUC in cynomolgus monkey at 2 mg/kg, po; format: ADME, organism-based, Macaca fascicularis; parameters: dose 2 mg/kg, route oral; details: plasma
Cytochrome P450 2C19 = Cytochrome P450 2C19 (Homo sapiens, UniProt P33261); assay: Inhibition of human CYP2C19; format: ADME
Sequence of Cytochrome P450 2C19 (P33261 whole entry): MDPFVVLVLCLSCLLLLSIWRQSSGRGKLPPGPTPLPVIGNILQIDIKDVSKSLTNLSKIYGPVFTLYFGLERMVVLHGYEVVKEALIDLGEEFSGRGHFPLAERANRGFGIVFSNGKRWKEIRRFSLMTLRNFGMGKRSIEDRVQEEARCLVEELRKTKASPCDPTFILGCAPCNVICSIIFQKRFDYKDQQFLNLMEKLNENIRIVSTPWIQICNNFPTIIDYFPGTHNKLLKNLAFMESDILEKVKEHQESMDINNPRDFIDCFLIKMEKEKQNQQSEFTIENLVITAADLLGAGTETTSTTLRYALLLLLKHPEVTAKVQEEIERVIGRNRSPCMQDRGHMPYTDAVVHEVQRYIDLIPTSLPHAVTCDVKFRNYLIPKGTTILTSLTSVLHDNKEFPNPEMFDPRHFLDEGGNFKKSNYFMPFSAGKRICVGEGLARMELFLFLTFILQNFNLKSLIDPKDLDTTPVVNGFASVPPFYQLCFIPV

Vasopressin V1a receptor = Vasopressin V1a receptor (Homo sapiens, UniProt P37288); assay: Displacement of [3H]vasopressin from human vasopressin V1a receptor
Sequence of Vasopressin V1a receptor (P37288 whole entry): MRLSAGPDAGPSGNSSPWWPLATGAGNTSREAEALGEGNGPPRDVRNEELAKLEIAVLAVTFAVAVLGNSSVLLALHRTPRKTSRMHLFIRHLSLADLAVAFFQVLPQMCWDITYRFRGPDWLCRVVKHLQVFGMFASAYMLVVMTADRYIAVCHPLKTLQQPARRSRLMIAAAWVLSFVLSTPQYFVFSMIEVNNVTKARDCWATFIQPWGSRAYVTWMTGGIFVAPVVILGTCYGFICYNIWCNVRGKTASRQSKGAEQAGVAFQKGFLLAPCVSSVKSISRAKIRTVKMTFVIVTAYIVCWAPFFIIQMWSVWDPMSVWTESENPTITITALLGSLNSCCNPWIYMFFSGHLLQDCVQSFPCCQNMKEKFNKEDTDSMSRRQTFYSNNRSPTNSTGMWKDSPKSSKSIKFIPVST

Cytochrome P450 3A4 [17] = biological target: T2, Cytochrome P450 3A4 (Homo sapiens, UniProt P08684); assay: Inhibition of human CYP3A4 using 7-benzyloxyquinoline as substrate; format: ADME
T2 sequence (P08684 whole entry): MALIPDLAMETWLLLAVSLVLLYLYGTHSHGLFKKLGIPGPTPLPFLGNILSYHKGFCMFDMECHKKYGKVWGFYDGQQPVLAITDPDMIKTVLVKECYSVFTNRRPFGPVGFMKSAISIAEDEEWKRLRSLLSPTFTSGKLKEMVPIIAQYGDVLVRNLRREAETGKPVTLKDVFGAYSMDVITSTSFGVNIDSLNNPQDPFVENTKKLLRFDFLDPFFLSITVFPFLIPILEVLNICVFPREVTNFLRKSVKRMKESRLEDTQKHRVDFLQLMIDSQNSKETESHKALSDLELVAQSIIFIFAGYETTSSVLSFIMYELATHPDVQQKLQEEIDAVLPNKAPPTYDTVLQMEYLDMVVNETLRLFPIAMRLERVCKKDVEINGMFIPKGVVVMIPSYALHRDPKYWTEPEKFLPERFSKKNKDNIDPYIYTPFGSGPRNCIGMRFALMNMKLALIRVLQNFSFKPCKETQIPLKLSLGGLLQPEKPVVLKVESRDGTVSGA

Vasopressin V1b receptor = biological target: T3, Vasopressin V1b receptor (Homo sapiens, UniProt P47901); assay: Displacement of [3H]vasopressin from human vasopressin V1b receptor
T3 sequence (P47901 whole entry): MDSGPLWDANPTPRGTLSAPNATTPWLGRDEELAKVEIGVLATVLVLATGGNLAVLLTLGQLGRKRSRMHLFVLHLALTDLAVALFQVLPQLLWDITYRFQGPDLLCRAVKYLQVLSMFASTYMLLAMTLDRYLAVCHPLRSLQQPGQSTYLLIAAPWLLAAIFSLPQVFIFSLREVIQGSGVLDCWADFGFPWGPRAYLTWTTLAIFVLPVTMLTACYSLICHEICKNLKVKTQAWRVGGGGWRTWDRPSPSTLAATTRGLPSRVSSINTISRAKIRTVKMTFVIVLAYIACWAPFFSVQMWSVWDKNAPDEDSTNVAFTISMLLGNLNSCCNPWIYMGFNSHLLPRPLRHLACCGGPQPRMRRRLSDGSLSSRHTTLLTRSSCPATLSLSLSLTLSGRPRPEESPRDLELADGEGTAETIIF

Cytochrome P450 2C9 = Cytochrome P450 2C9 (Homo sapiens, UniProt P11712); assay: Inhibition of human CYP2C9; format: ADME
Sequence of Cytochrome P450 2C9 (P11712 whole entry): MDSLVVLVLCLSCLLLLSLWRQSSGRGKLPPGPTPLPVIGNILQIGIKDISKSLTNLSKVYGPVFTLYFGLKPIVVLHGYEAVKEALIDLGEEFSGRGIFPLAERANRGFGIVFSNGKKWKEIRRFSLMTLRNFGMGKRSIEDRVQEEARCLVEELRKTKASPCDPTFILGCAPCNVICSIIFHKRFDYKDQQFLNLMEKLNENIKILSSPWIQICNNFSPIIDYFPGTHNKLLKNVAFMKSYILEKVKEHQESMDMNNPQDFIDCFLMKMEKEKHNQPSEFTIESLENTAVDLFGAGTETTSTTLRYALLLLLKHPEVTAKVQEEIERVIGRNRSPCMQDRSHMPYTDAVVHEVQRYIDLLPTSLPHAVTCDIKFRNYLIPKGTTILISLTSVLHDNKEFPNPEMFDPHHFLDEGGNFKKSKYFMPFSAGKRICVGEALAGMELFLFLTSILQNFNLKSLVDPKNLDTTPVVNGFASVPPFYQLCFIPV

Cytochrome P450 3A4 [18] = biological target: T2, Cytochrome P450 3A4; assay: Inhibition of human CYP3A4 using diethoxyfluorescein as substrate; format: ADME
Cytochrome P450 2D6 = Cytochrome P450 2D6 (Homo sapiens, UniProt P10635); assay: Inhibition of human CYP2D6; format: ADME
Sequence of Cytochrome P450 2D6 (P10635 whole entry): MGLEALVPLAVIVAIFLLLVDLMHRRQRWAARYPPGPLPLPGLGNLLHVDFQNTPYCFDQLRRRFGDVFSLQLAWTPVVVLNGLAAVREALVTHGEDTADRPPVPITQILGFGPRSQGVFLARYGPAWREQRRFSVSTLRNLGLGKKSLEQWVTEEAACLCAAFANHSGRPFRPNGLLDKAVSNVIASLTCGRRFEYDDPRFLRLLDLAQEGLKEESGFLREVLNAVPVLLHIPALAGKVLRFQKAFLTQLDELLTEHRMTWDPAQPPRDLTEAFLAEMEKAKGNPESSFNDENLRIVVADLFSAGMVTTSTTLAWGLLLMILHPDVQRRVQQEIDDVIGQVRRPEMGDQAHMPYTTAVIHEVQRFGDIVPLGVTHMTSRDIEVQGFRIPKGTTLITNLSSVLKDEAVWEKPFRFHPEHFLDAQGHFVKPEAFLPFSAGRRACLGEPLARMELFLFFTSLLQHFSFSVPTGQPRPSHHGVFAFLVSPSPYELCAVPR

Cytochrome P450 1A2 = biological target: T4, Cytochrome P450 1A2 (Homo sapiens, UniProt P05177); assay: Inhibition of human CYP1A2; format: ADME
T4 sequence (P05177 whole entry): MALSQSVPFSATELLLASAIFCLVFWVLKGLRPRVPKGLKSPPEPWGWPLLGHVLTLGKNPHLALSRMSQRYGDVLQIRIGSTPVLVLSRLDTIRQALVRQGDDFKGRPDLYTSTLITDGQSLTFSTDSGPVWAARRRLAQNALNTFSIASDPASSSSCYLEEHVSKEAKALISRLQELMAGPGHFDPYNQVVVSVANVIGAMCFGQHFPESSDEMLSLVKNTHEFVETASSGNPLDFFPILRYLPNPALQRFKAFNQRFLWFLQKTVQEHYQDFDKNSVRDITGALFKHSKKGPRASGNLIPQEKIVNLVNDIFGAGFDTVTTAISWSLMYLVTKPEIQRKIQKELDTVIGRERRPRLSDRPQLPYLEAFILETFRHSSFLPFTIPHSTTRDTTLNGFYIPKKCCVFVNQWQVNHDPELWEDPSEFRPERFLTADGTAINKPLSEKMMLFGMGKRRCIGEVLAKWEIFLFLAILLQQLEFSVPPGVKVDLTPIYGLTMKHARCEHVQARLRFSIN

[19] = Oral bioavailability in cynomolgus monkey at 2 mg/kg; format: ADME, organism-based, Macaca fascicularis; details: in vivo
[20] = Clearance in cynomolgus monkey at 2 mg/kg; format: ADME, organism-based, Macaca fascicularis; parameters: dose 2 mg/kg; details: in vivo
Vasopressin V2 receptor = Vasopressin V2 receptor (Homo sapiens, UniProt P30518); assay: Displacement of [3H]vasopressin from human vasopressin V2 receptor
Sequence of Vasopressin V2 receptor (P30518 whole entry): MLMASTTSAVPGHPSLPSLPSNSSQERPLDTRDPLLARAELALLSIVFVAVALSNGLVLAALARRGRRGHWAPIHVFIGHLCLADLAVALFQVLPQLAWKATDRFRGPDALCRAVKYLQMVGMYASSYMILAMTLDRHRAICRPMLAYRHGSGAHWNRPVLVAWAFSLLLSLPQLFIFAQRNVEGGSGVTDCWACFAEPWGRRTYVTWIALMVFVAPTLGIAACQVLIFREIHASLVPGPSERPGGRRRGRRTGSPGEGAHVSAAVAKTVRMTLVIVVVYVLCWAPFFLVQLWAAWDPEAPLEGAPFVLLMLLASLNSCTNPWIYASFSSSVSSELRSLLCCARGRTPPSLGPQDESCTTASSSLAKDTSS

[21] = Half life in rat; format: ADME, organism-based; details: in vivo
Salmonella typhimurium = assay: Genotoxicity in Salmonella typhimurium by high-throughput fluctuation test/mini-Ames assay; format: toxicity, organism-based; details: salmonella enterica subsp. enterica serovar typhimurium
Rattus norvegicus [22] = assay: Toxicity in Sprague-Dawley rat assessed as reduction in food intake at 100 mg/kg/day, po for 7 days; format: organism-based; parameters: route oral; details: in vivo, 168 h
[23] = Solubility of the compound in water; format: physicochemical
[24] = Chemical stability of the compound in aqueous solution at pH 2 to 6 up to 7 days in presence of light; format: physicochemical; details: buffer, pH 2, 168 h
[25] = Lipophilicity, log D of the compound at pH 7.4; format: physicochemical; details: buffer
Rattus norvegicus [26] = assay: Reduction of oxytocin-induced uterine contraction in iv dosed rat uterine contractility model; format: functional, organism-based
Rattus norvegicus [27] = assay: Toxicity in Sprague-Dawley rat assessed as adverse clinical signs at 100 mg/kg/day, po for 7 days; format: organism-based; parameters: route oral; details: in vivo, 168 h
Rattus norvegicus [28] = assay: Toxicity in Sprague-Dawley rat assessed as reduction in body weight at 100 mg/kg/day, po for 7 days; format: organism-based; parameters: route oral; details: in vivo, 168 h
[29] = Chemical stability of the compound up to 3 months at 50 degC; format: physicochemical
[30] = Dissociation constant, pKa of the compound in aqueous solution; format: physicochemical
Rattus norvegicus [31] = assay: Toxicity in Sprague-Dawley rat assessed as adverse histological findings at 100 mg/kg/day, po for 7 days; format: organism-based; parameters: route oral; details: in vivo, 168 h

CLH (Liver): 3 mL/min/g
Ki (Oxytocin receptor [1]): 1580 pM
clearance [2]: 18 mL/min/kg
CLH (Liver microsomes [3]): 3 mL/min/g
AUC [4]: 2680 ng·h/mL
fraction unbound (serum albumin [5]): 0.14
bioavailability [6]: 57%
fraction unbound (serum albumin [7]): 0.17
clearance [8]: 6 mL/min/kg
CLH (Liver microsomes [9]): 11 mL/min/g
CLH [10]: 21 mL/min/g
solubility [11]: > 236 µg/mL
AUC [12]: 454 ng·h/mL
bioavailability [13]: 26%
logD [14]: 2.1
SMILES: Cc1ccc([C@H](C(=O)N(C)C)N2C(=O)[C@@H](C3Cc4ccccc4C3)NC(=O)[C@H]2CC(C)C)cn1

Ki (Oxytocin receptor [15]): 0.00794 µM
SMILES: Cc1ccccc1[C@H](C(=O)NC(C)C)N1C(=O)[C@@H](C2Cc3ccccc3C2)NC(=O)[C@H]1CC(C)C

Ki (Oxytocin receptor [15]): 0.0316 µM
SMILES: CC(C)C[C@@H]1C(=O)N[C@H](C2Cc3ccccc3C2)C(=O)N1[C@@H](C(=O)NC(C)C)c1ccccc1C(F)(F)F

Ki (Oxytocin receptor [15]): 0.0316 µM
SMILES: COc1ccccc1[C@H](C(=O)NC(C)C)N1C(=O)[C@@H](C2Cc3ccccc3C2)NC(=O)[C@H]1CC(C)C

CLH (Liver): 1 mL/min/g
Ki (Oxytocin receptor [1]): 31.6 pM
AUC [16]: 11 ng·h/mL
clearance [2]: 15 mL/min/kg
CLH (Liver microsomes [3]): 1 mL/min/g
AUC [4]: 2330 ng·h/mL
bioavailability [6]: 42%
CLH (Liver microsomes [9]): 11 mL/min/g
CLH [10]: 14 mL/min/g
SMILES: CCC(CC)[C@@H]1C(=O)N[C@H](C2Cc3ccccc3C2)C(=O)N1[C@@H](C(=O)N1CCOCC1)c1ccc(C)nc1C

IC50 (Cytochrome P450 2C19): 38 µM
CLH (Liver): 7 mL/min/g
Ki (Vasopressin V1a receptor): 0.631 µM
Ki (Oxytocin receptor [1]): 79.4 pM
AUC [16]: 16 ng·h/mL
clearance [2]: 15 mL/min/kg
CLH (Liver microsomes [3]): 2 mL/min/g
AUC [4]: 2970 ng·h/mL
IC50 (Cytochrome P450 3A4 [17]): 31 µM
Ki (Vasopressin V1b receptor): > 12.6 µM
fraction unbound (serum albumin [5]): 0.01
IC50 (Cytochrome P450 2C9): 12 µM
IC50 (Cytochrome P450 3A4 [18]): 5 µM
IC50 (Cytochrome P450 2D6): 66 µM
fraction unbound (serum albumin [7]): 0.06
clearance [8]: 7 mL/min/kg
IC50 (Cytochrome P450 1A2): > 100 µM
bioavailability [19]: 1.5%
clearance [20]: 24 mL/min/kg
CLH (Liver microsomes [9]): 14 mL/min/g
CLH [10]: 22 mL/min/g
AUC [12]: 770 ng·h/mL
Ki (Vasopressin V2 receptor): 0.0398 µM
logD [14]: 3.4
SMILES: CC(C)C[C@@H]1C(=O)N[C@H](C2Cc3ccccc3C2)C(=O)N1[C@@H](C(=O)N(C)C)c1ccc(F)cc1F

IC50 (Cytochrome P450 2C19): > 100 µM
CLH (Liver): < 1 mL/min/g
Ki (Vasopressin V1a receptor): > 6.31 µM
Ki (Oxytocin receptor [1]): 126 pM
AUC [16]: 116 ng·h/mL
clearance [2]: 13 mL/min/kg
half-life [21]: 1.2 h
CLH (Liver microsomes [3]): < 1 mL/min/g
AUC [4]: 3450 ng·h/mL
IC50 (Cytochrome P450 3A4 [17]): > 100 µM
Ki (Vasopressin V1b receptor): > 7.94 µM
solubility [23]: 33000 µg/mL (≈ 63600 µM)
bioavailability [6]: 55%
IC50 (Cytochrome P450 2C9): > 100 µM
IC50 (Cytochrome P450 3A4 [18]): > 100 µM
IC50 (Cytochrome P450 2D6): > 100 µM
fraction unbound (serum albumin [7]): 0.3
clearance [8]: 19 mL/min/kg
IC50 (Cytochrome P450 1A2): > 100 µM
bioavailability [19]: 7%
Stability [24]: Stable
logD [25]: 2.55
clearance [20]: 26 mL/min/kg
CLH (Liver microsomes [9]): 5 mL/min/g
CLH [10]: 4 mL/min/g
IC50 (Rattus norvegicus [26]): 0.192 µM
solubility [11]: 232 µg/mL (≈ 447 µM)
AUC [12]: 69 ng·h/mL
Ki (Vasopressin V2 receptor): 3.98 µM
Stability [29]: Stable
pKa [30]: 5.78
bioavailability [13]: 13%
logD [14]: 2.2
SMILES: CC[C@H](C)[C@@H]1C(=O)N[C@H](C2Cc3ccccc3C2)C(=O)N1[C@@H](C(=O)N1CCOCC1)c1ccc(C)nc1C [EPELSIBAN]
Activity (Salmonella typhimurium): Non-toxic
Activity (Rattus norvegicus [22]): Non-toxic
Activity (Rattus norvegicus [27]): Non-toxic
Activity (Rattus norvegicus [28]): Non-toxic
Activity (Rattus norvegicus [31]): Non-toxic

Ki (Oxytocin receptor [15]): 0.158 µM
SMILES: COC(=O)c1ccccc1[C@@H](C(=O)NC(C)C)N1C(=O)[C@@H](C2Cc3ccccc3C2)NC(=O)[C@H]1CC(C)C
